Measured values from the Kinase Knowledgebase extract (Sharma et al. 2016).
pIC50: −log10 of the molar value.

Target: MAPK14;MAPK11;MAPK12 (human) (UniProt Q16539)
Experiment: Inhibition of p38 Kinase Activity

Row | SMILES | pIC50
1 | CNc1nc(Nc2ccc3ncsc3c2)nc(N[C@H](C)C2CCCCC2)n1 | > 5.00
2 | CNC(=O)c1ccc(C)c(Oc2nc(N[C@@H]3CCNC3)nc(N(C)CC(C)(C)C)n2)c1 | > 4.52
3 | Cc1ccc(C(N)=O)cc1Sc1nc(NCc2ccccn2)nc(N(C)CC(C)(C)C)n1 | > 4.52
4 | CC1(C)C2CCC(CNc3nc(Nc4ccc5ncsc5c4)nc(N4CCN(C(=O)CCC(=O)O)CC4)n3)C1C2 (stereo unspecified) | > 5.00
5 | CNC(=O)C1CCN(c2nc(NC[C@@H]3CC[C@@H]4C[C@H]3C4(C)C)nc(Nc3ccc4ncsc4c3)n2)CC1 | > 5.00
6 | CCNC(=O)N1CCN(c2nc(NCC(C)c3ccccc3)nc(Nc3ccc4ncsc4c3)n2)CC1 (stereo unspecified) | > 5.00
7 | CC(C)C(=O)N1CC2CC1CN2c1nc(NCC(C)c2ccccc2)nc(Nc2ccc3ncsc3c2)n1 (stereo unspecified) | > 5.00
8 | CN(CC1CCCCC1)c1nc(Nc2ccc3ncsc3c2)nc(N2CCNCC2)n1 | > 5.00
9 | CC(C)c1nc(NC[C@@H]2CC[C@@H]3C[C@H]2C3(C)C)nc(Nc2ccc3ncsc3c2)n1 | > 5.00
10 | OC(CNc1nc(Cl)nc(Nc2ccc3ncsc3c2)n1)c1ccccc1 (stereo unspecified) | > 5.00
11 | CONC(=O)c1ccc(C)c(Oc2nc(N[C@@H]3CCNC3)nc(N(C)CC(C)(C)C)n2)c1 | > 4.52
12 | CC(C)Oc1nc(NCC(C)c2ccccc2)nc(Nc2ccc3ncsc3c2)n1 (stereo unspecified) | > 5.00
13 | CC(C)OCCNc1cc(N(C)C)nc(-n2cnc3ccccc32)n1 | > 5.00
14 | CC(CNc1nc(Nc2ccc3ncsc3c2)nc(N2CCN(C(=S)NC3CCCCC3)CC2)n1)c1ccccc1 (stereo unspecified) | > 5.00
15 | CONC(=O)c1ccc(C)c(Oc2nc(N(C)CC(C)(C)C)nc(N3CCCN(C)CC3)n2)c1 | > 4.52
16 | CCC(CNc1nc(Cl)nc(Nc2ccc3ncsc3c2)n1)c1ccccc1 (stereo unspecified) | > 5.00
17 | c1ccc2c(c1)CCN(c1nc(Nc3ccc4ncsc4c3)nc(N3CCNCC3)n1)C2 | > 5.00
18 | CONC(=O)c1ccc(C)c(Sc2nc(NCc3ccccn3)nc(N(C)CC(C)(C)C)n2)c1 | > 4.52
19 | CONC(=O)c1ccc(C)c(Nc2nc(NCCc3ccccn3)nc(N(C)CC(C)(C)C)n2)c1 | > 6.00
20 | CC(CNc1nc(Nc2ccc3ncsc3c2)nc(N2CC3CC2CN3C(=O)Cc2ccc(Cl)c(Cl)c2)n1)c1ccccc1 (stereo unspecified) | > 5.00
21 | Cc1ccc(C(N)=O)cc1Nc1nc(NC[C@H]2CCCN2)nc(N(C)CC(C)(C)C)n1 | > 6.00
22 | CNC(=O)c1ccc(C)c(Nc2nc(N[C@H]3CCNC3)nc(N(C)CC(C)(C)C)n2)c1 | > 6.00
23 | Cc1ccc(C(N)=O)cc1Nc1nc(N[C@H]2CCN(Cc3ccc(O)cc3)C2)nc(N(C)CC(C)(C)C)n1 | > 6.00
24 | Cc1ccc(C(N)=O)cc1Nc1nc(N[C@H]2CCN(Cc3cccc4c3OCO4)C2)nc(N(C)CC(C)C)n1 | > 6.00
25 | Cc1ccc(C(N)=O)cc1Nc1nc(NC2CCCc3ccccc32)nc(N[C@@H]2CCNC2)n1 (stereo partly specified) | > 6.00
26 | CC(CN(C)c1nc(Nc2ccc3ncsc3c2)nc(N(C)C)n1)c1ccccc1 (stereo unspecified) | > 5.00

Row | SMILES | pIC50
27 | CN(CC(C)(C)C)c1nc(Cc2cccc(C(N)=O)c2)nc(N[C@H]2CCNC2)n1 | > 6.00
28 | Cc1ccc(C(=O)NCC(F)(F)F)cc1Nc1nc(N[C@H]2CCNC2)nc(N(C)CC(C)C)n1 | > 6.00
29 | CCCCC(C)c1nc(Nc2cc(C(N)=O)ccc2C)nc(N[C@H]2CCNC2)n1 (stereo partly specified) | > 6.00
30 | Cc1ccc(C(N)=O)cc1Nc1nc(N[C@H]2CCN(Cc3ccc(C(C)(C)C)cc3)C2)nc(N(C)CC(C)C)n1 | > 6.00
31 | Cc1ccc(C(N)=O)cc1Nc1nc(N[C@H]2CCNC2)nc(SCC(C)C)n1 | > 6.00
32 | Cc1ccc(C(N)=O)cc1Nc1nc(NC2CCN(Cc3ccccn3)C2)nc(N(C)CC(C)C)n1 (stereo unspecified) | > 6.00
33 | O=C(O)CCC(=O)N1CCN(c2nc(Nc3ccc4ncsc4c3)nc(N3CCc4ccccc4C3)n2)CC1 | > 5.00
34 | Cc1ccc(C(N)=O)cc1Nc1nc(NC2CCCNC2)nc(N(C)CC(C)(C)C)n1 (stereo unspecified) | > 6.00
35 | Cc1ccc(C(N)=O)cc1Nc1nc(NC2CCS(=O)(=O)C2)nc(N(C)CC(C)(C)C)n1 (stereo unspecified) | > 6.00
36 | Cc1ccc(C(N)=O)cc1Nc1nc(NCC(C)C)nc(N[C@H]2CCNC2)n1 | > 6.00
37 | COc1nc(NCC(C)c2ccccc2)nc(Nc2ccc3ncsc3c2)n1 (stereo unspecified) | > 5.00
38 | CNC1CCN(c2cc(NCCOC(C)C)nc(-n3cnc4ccc(C)cc43)n2)C1 (stereo unspecified) | > 5.00
39 | CCONC(=O)c1ccc(C)c(Nc2nc(N[C@@H]3CCNC3)nc(N(C)CC(C)C(F)(F)F)n2)c1 (stereo partly specified) | > 6.00
40 | CCNC(=O)c1ccc(C)c(Nc2nc(N[C@H]3CCNC3)nc(N(C)CC3CCCC3)n2)c1 | > 6.00
41 | COc1ccccc1CN1CCC(Nc2nc(Nc3cc(C(N)=O)ccc3C)nc(N(C)CC(C)C)n2)C1 (stereo unspecified) | > 6.00
42 | COCCNC(=O)c1ccc(C)c(Nc2nc(N[C@H]3CCNC3)nc(N(C)CC(C)C)n2)c1 | > 6.00
43 | Cc1ccc(C(N)=O)cc1Nc1nc(N[C@H]2CCNC2)nc(OCC(C)(C)C)n1 | > 6.00
44 | CC(CNc1nc(Nc2ccc3ncsc3c2)nc(N2CC3CC2CN3C(=O)C2CCOC2)n1)c1ccccc1 (stereo unspecified) | > 5.00
45 | CONC(=O)c1ccc(C)c(Nc2cc(F)nc(N(C)CC(C)(C)C)n2)c1 | > 6.00
46 | CCCNC(=O)N1CC[C@@H](Nc2nc(Nc3cc(C(=O)NOC)ccc3C)nc(N(C)CC(C)(C)C)n2)C1 | > 6.00
47 | Cc1ccc(C(N)=O)cc1Nc1nc(N[C@H]2CCN(Cc3ccccc3)C2)nc(N(C)CC(C)C)n1 | > 6.00
48 | CCONC(=O)c1ccc(C)c(Nc2cc(N3CCCN(C)CC3)nc(N(C)CC(C)(C)C)n2)c1 | > 6.00
49 | CNCCN(C)c1nc(NCc2ccc(Cl)c(Cl)c2)nc(Nc2ccc3ncsc3c2)n1 | > 5.00
50 | Cc1ccc(C(N)=O)cc1Nc1nc(NCC23CC4CC(CC(C4)C2)C3)nc(N[C@H]2CCNC2)n1 | > 6.00
51 | CC1(C)C2CCC(CNc3nc(Nc4ccc5ncoc5c4)nc(N4CCNCC4)n3)C1C2 (stereo unspecified) | > 5.00

Further lines, results first:

Row | pIC50 | SMILES
52 | > 6.00 | Cc1ccc(C(N)=O)cc1Nc1nc(NCCc2ccc(O)cc2)nc(N[C@H]2CCNC2)n1
53 | > 6.00 | CCONC(=O)c1ccc(C)c(Nc2nc(NC)cc(N(C)CC(C)(C)C)n2)c1
54 | > 6.00 | CONC(=O)c1ccc(C)c(Nc2nc(N[C@@H]3CCCNC3=O)nc(N(C)CC(C)(C)C)n2)c1
55 | > 6.00 | Cc1ccc(C(N)=O)cc1Nc1nc(NCC23CC4CC(CC(C4)C2)C3)nc(N[C@@H]2CCNC2)n1
56 | > 6.00 | Cc1ccc(C(N)=O)cc1Nc1nc(N[C@H]2CN[C@@H](C)C2)nc(N(C)CC(C)(C)C)n1
57 | > 6.00 | Cc1ccc(C(N)=O)cc1Nc1nc(N[C@H]2CCN(Cc3ccc(O)cc3)C2)nc(N(C)CC(C)C)n1
58 | > 6.00 | COCCNC(=O)c1ccc(C)c(Nc2nc(N[C@H]3CCNC3)nc(N(C)CC(C)(C)C)n2)c1
59 | > 6.00 | Cc1ccc(-c2nn(C)c(=O)[nH]2)cc1Nc1nc(N[C@@H]2CCNC2)nc(N(C)CC(C)(C)C)n1
60 | > 6.00 | Cc1ccc(C(N)=O)cc1Nc1nc(N[C@H]2CCN(Cc3ccncc3)C2)nc(N(C)CC(C)C)n1
61 | > 6.00 | Cc1ccc(CC2CC(Nc3nc(Nc4cc(C(N)=O)ccc4C)nc(N(C)CC(C)(C)C)n3)CN2)cc1 (stereo unspecified)
62 | > 6.00 | Cc1ccc(C(N)=O)cc1Nc1nc(N[C@H]2CCN(S(C)(=O)=O)C2)nc(N(C)CC(C)C)n1
63 | > 6.00 | CONC(=O)c1ccc(C)c(Nc2nc(NC(C)c3ccccn3)nc(N(C)CC(C)(C)C)n2)c1 (stereo unspecified)
64 | > 6.00 | CCC(C)CNc1nc(Nc2cc(C(N)=O)ccc2C)nc(N[C@H]2CCNC2)n1 (stereo partly specified)
65 | > 6.00 | CC1(C)[C@H]2CC[C@@H](CNc3nc(N4CCCNCC4)nc(N4CCc5ccc([N+](=O)[O-])cc54)n3)[C@@H]1C2
66 | > 6.00 | CCN(CC(C)(C)C)c1nc(Nc2cc(C(N)=O)ccc2C)nc(N[C@H]2CCNC2)n1
67 | > 6.00 | Cc1ccc(C(N)=O)cc1Nc1nc(NC2CCCCC2)nc(N(C)CC(C)(C)C)n1
68 | > 6.00 | Cc1ccc(C(N)=O)cc1Nc1nc(N[C@H]2CCNC2)nc(N(C)C[C@H](C)c2ccccc2)n1
69 | > 6.00 | Cc1ccc(C(N)=O)cc1Nc1nc(N[C@@H]2CCN(C(C)C(C)C)C2)nc(N(C)CC(C)(C)C)n1 (stereo partly specified)
70 | > 6.00 | Cc1ccc(C(N)=O)cc1Nc1nc(NC2Cc3ccccc3C2)nc(N[C@@H]2CCNC2)n1
71 | > 6.00 | CONC(=O)c1ccc(C)c(Nc2nc(NCCCn3ccnc3)nc(N(C)CC(C)(C)C)n2)c1

Row | pIC50 | SMILES
72 | > 6.00 | Cc1ccc(C(N)=O)cc1Nc1nc(N[C@H]2CCN(C3CCC3)C2)nc(N(C)CC(C)(C)C)n1
73 | > 6.00 | CCOC(=O)Nc1ccc(C)c(Nc2nc(NCCN3CCCC3)nc(N(C)CC(C)(C)C)n2)c1
74 | > 6.00 | Cc1ccc(C(N)=O)cc1Nc1nc(NC2CCCN(C(C)C)C2)nc(N(C)CC(C)C)n1 (stereo unspecified)
75 | > 6.00 | Cc1ccc(C(N)=O)cc1Nc1nc(NCC2(c3ccc(Cl)cc3)CC2)nc(N[C@H]2CCNC2)n1
76 | > 6.00 | CCCc1ccc(C(N)=O)cc1Nc1nc(N[C@H]2CCNC2)nc(N(C)CC(C)(C)C)n1
77 | > 6.00 | Cc1ccc(C(N)=O)cc1Nc1nc(N[C@H]2CCNC2)nc(N(C)CC2CCCC2)n1
78 | > 6.00 | Cc1ccc(C(N)=O)cc1Nc1nc(N[C@H]2CCCC[C@H]2NC(=O)CO[C@H]2C[C@@H](C)CC[C@H]2C(C)C)nc(N(C)CC(C)C)n1
79 | > 6.00 | CCONC(=O)c1ccc(C)c(Nc2nc(NCCO)nc(N(C)CC(C)(C)C)n2)c1
80 | > 6.00 | CCONC(=O)c1ccc(C)c(Nc2nc(NC)nc(N(C)CC(C)(C)C)n2)c1
81 | > 6.00 | COCCCN1CCC(Nc2nc(Nc3cc(C(N)=O)ccc3C)nc(N(C)CC(C)C)n2)C1 (stereo unspecified)
82 | > 6.00 | CONC(=O)c1ccc(C)c(Nc2nc(N(C)C)nc(N(C)CC(C)(C)C)n2)c1
83 | > 6.00 | Cc1cc2c(cc1Cl)C(=O)N2c1nc(N[C@H]2CCNC2)nc(N(C)CC(C)C)n1
84 | > 6.00 | Cc1ccc(C(N)=O)cc1Nc1nc(NCC2(C)CCCC2)nc(N[C@H]2CCNC2)n1
85 | > 6.00 | Cc1ccc(-c2nnco2)cc1Nc1nc(N[C@@H]2CCNC2)nc(N(C)CC(C)(C)C)n1
86 | > 6.00 | Cc1ccc(-c2ncc[nH]2)cc1Nc1nc(N(C)CC(C)(C)C)nc(N2CCCN(C)CC2)n1
87 | > 6.00 | Cc1ccc(C(N)=O)cc1Nc1nc(N[C@@H]2CCNC2)nc(N2CCC(C)(C)CC2)n1
88 | > 6.00 | Cc1ccc(CC2C[C@@H](Nc3nc(Nc4cc(C(N)=O)ccc4C)nc(N(C)CC(C)C)n3)CN2)cc1 (stereo partly specified)
89 | > 6.00 | Cc1ccc(C(N)=O)cc1Nc1nc(N[C@H]2CCNC2)nc(N(C)CC23CC4CC(CC(C4)C2)C3)n1
90 | > 6.00 | Cc1ccc(C(=O)Nc2ccccn2)cc1Nc1nc(N[C@H]2CCNC2)nc(N(C)CC(C)(C)C)n1
91 | > 6.00 | Cc1ccc(C(N)=O)cc1Nc1nc(NCC(C)c2ccccc2)nc(N[C@H]2CCNC2)n1 (stereo partly specified)
